Measured values as given in patent US12138294B2, “Transgenic corn with antifungal peptide AGM182 (DN:0113.18)” (GENVOR, INC., priority 2018, dated 2024).
“Also recorded” adds a separate entry of the source. Bridge positions count the residues as written; N and C are the ends. Peptide text beside a SMILES is read from it.

Legend:
[1] = test system: maize (Zea mays L. Hi-II); experiment: Phenotype of transgenic maize plants expressing AGM182; details: transgenic maize plants vs. isogenic negative or non-transformed control
[2] = test system: pre-germinated conidia of A. flavus; details: read-out: IC50 against A. flavus; in vitro; pre-germinated conidia of A. flavus 70-GFP treated 60 min with 0-25 μM peptide; colonies counted after 24 h at 30° C.
porcine blood cells = experiment: Hemolysis of porcine blood cells

Row | Molecule | effect of transgenic expression on plant phenotype and seed weight [1] | IC50 [2] | hemolysis of porcine blood cells (porcine blood cells; all concentrations of AGM182) | hemolysis of porcine blood cells (porcine blood cells; 0.1% Triton-X, positive control)
1 | CC[C@H](C)[C@H](NC(=O)[C@@H]1CSSC[C@H](NC(=O)[C@H](CC(C)C)NC(=O)[C@H](CCCNC(=N)N)NC(=O)[C@H](C)NC(=O)[C@H](CCCCN)NC(=O)[C@@H](NC(=O)[C@@H](N)CCCCN)[C@@H](C)CC)C(=O)N[C@@H](CC(C)C)C(=O)NCC(=O)N[C@@H](CCCCN)C(=O)N[C@@H](Cc2ccccc2)C(=O)N1)C(=O)N[C@@H](CCCCN)C(=O)N[C@@H](C)C(=O)N[C@@H](CCCNC(=N)N)C(=O)N[C@@H](CC(C)C)C(=O)N[C@@H](CCCCN)C(=O)O [AGM182] (H-KIKARLCLGKFCIKARLK-OH; disulfide 7-12) | did not exhibit any overt phenotype; also recorded: did not have any negative effect on plant phenotype and seed weight | 2.5 µM | No hemolysis; also recorded: absence of hemolytic activity | –
2 | CC[C@H](C)[C@@H]1NC(=O)CNC(=O)[C@H](CCCNC(=N)N)NC(=O)[C@H](Cc2ccc(O)cc2)NC(=O)[C@@H]2CSSC[C@H](NC1=O)C(=O)N[C@@H](Cc1ccc(O)cc1)C(=O)N[C@@H](CCCNC(=N)N)C(=O)N[C@@H](CCCNC(=N)N)C(=O)N[C@H](C(=O)N[C@@H](CCCNC(=N)N)C(N)=O)CSSC[C@H](NC(=O)[C@H](Cc1c[nH]c3ccccc13)NC(=O)[C@@H](N)CCCCN)C(=O)N[C@@H](Cc1ccccc1)C(=O)N[C@@H](CCCNC(=N)N)C(=O)N[C@@H](C(C)C)C(=O)N2 [tachyplesin1, reference compound] (H-KWCFRVCYRGICYRRCR-NH2; disulfide 3-16, 7-12) | – | 12.5 µM | – | –
3 | Triton-X [reference compound] | – | – | – | 100%
